Test results reported in patent publication US20250243180A1, “TARGETED PROTEIN DEGRADATION” (Monte Rosa Therapeutics AG, priority 2023, published 2025).
pEC50, pIC50: −log10 of the molar value. Like-named read-outs stand apart in the source and are kept apart here.

How the values were obtained:
IL-1β release = IL-1β release in human monocyte-derived macrophages, LPS/nigericin stimulation; assay type: cell-based; details: Macrophage, 24 h pre-treatment, LPS 3 h then 10 μM nigericin 1 h, read-out: IL-1b IC50 (NIG)
Experimental: (§1) Human monocytes were enriched and isolated from a buffy coat of healthy donor whole blood with a RosetteSep™ Human Monocyte Enrichment Cocktail (Cat.No. 15068, StemCell) and Ficoll-Plaque PLUS (Cat.No. H8889, Sigma). Monocytes were differentiated into macrophages by treatment with 100 ng/mL M-CSF for 6 days at 37° C., 5% CO2. Differentiated macrophages were seeded overnight (50,000 cells/well) in 100 µL of medium in a 96-well, white-bottom plate at 37° C., 5% CO2. Cells were treated with a concentration range of MGD for 24 hours prior to stimulation with nigericin. Macrophages were primed with […] LPS for 3 h followed by 1 h stimulation with 10 μM nigericin. Media of stimulated macrophages were collected and assayed for caspase 1 activity directly (Promega G9951), according to manufacturer's instructions. For IL-1β release assay, media of stimulated macrophages were collected and stored at −20° C., then thawed at 4° C. before assaying for IL-1β activity (Promega W6011), according to manufacturer's instructions.

CRBN-DDB1 = CRBN-DDB1 (Homo sapiens (Human), UniProt Q96SW2); test: Compound binding to CRBN by HTRF assay
In short: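 HTRF displacement of Cy5-thalidomide probe (100 nM) from His-tagged CRBN-DDB1 (2.5 nM) with anti-His terbium cryptate, in HEPES/NaCl/TCEP/EDTA/Tween20 buffer; 11-point 1:3 dilution series, 30 min at ambient temperature. Signal (665/620 nm) normalized to lenalidomide and DMSO controls; EC50 fitted, Ki by Cheng-Prusoff from geometric mean EC50.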

NEK7 = NEK7 (Homo sapiens (Human), UniProt Q8TDX7+Q96SW2); test: NEK7 NanoBiT degradation assay in Cal51 NEK7 NanoBiT cell line; assay type: cell-based; details: Cal51 NEK7 NanoBiT cells, 24 hours; for Dmax: CAL-51
In short: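 Cal51 cells with CRISPR knock-in HiBiT-tagged endogenous NEK7 plus stable LgBiT, in live-cell Endurazine medium, seeded 16 h before dosing. Compounds at final 1 μM to 0.05 nM for 24 h at 37 °C, then luminescence read. Response normalized to plate controls and fitted with a 4-parameter logistic giving EC50.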

Caspase-1 activity = Caspase-1 activity in human monocyte-derived macrophages, LPS/nigericin stimulation; assay type: cell-based; details: Macrophage, 24 h pre-treatment, LPS 3 h then 10 μM nigericin 1 h, read-out: Caspase-1 IC50 (NIG)
Experimental: as §1

[1] = NEK7 degradation, read-out: NanoBiT Dmax
[2] = NEK7 degradation, read-out: NanoBiT DC50

CRBN-DDB1, sequence (Q96SW2 whole entry): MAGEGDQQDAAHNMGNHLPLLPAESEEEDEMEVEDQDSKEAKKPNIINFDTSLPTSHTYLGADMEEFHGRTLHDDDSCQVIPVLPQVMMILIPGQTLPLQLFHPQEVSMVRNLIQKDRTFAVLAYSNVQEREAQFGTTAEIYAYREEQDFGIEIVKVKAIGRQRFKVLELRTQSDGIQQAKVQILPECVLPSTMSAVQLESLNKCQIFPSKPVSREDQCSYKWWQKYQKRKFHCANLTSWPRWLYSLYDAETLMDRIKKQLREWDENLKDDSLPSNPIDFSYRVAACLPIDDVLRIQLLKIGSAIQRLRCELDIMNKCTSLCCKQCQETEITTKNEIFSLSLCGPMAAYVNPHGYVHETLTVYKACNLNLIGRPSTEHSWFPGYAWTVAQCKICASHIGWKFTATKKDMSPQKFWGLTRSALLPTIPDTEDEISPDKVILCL
CRBN-DDB1, sequence (Q16531 whole entry partner): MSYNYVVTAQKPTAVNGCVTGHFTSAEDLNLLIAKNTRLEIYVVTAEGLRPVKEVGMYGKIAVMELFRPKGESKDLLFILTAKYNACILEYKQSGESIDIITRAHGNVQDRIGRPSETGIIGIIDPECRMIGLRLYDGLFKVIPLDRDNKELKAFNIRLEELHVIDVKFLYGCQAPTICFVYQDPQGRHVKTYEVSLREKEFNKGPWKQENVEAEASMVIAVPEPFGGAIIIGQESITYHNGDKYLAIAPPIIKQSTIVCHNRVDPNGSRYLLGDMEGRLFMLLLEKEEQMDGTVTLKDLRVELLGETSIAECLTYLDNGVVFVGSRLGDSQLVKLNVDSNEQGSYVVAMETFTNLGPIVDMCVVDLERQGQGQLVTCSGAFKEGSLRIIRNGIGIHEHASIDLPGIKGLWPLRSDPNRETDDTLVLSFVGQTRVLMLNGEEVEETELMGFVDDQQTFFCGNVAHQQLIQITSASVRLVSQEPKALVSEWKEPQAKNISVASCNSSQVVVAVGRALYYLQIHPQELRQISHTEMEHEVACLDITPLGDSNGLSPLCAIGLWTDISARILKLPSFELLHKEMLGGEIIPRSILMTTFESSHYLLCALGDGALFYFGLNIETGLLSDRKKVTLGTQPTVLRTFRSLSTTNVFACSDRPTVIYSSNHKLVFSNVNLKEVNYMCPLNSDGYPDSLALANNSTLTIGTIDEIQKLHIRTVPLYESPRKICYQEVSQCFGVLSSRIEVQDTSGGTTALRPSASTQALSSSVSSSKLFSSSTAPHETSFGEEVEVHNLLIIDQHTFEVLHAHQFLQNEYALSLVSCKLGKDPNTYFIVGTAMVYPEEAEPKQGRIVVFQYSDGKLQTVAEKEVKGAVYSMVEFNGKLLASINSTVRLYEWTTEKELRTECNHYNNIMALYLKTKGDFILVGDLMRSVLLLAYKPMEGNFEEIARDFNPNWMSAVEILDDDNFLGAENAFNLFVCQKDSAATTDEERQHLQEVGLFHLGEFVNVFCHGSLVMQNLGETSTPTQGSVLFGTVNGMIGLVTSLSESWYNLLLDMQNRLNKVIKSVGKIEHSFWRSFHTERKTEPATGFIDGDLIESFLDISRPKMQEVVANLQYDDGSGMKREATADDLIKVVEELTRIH
NEK7, sequence (Q8TDX7 whole entry): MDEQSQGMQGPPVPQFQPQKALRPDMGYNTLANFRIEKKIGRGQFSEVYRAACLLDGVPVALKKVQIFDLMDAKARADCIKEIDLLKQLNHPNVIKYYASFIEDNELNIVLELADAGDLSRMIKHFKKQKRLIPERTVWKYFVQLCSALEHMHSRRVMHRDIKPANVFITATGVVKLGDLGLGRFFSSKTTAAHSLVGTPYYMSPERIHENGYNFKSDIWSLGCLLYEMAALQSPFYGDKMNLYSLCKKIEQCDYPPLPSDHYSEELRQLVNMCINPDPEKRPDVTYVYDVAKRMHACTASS
NEK7, sequence (Q96SW2 whole entry): as the sequence (Q96SW2 whole entry) above
NEK7, sequence (Q16531 2-1140 partner): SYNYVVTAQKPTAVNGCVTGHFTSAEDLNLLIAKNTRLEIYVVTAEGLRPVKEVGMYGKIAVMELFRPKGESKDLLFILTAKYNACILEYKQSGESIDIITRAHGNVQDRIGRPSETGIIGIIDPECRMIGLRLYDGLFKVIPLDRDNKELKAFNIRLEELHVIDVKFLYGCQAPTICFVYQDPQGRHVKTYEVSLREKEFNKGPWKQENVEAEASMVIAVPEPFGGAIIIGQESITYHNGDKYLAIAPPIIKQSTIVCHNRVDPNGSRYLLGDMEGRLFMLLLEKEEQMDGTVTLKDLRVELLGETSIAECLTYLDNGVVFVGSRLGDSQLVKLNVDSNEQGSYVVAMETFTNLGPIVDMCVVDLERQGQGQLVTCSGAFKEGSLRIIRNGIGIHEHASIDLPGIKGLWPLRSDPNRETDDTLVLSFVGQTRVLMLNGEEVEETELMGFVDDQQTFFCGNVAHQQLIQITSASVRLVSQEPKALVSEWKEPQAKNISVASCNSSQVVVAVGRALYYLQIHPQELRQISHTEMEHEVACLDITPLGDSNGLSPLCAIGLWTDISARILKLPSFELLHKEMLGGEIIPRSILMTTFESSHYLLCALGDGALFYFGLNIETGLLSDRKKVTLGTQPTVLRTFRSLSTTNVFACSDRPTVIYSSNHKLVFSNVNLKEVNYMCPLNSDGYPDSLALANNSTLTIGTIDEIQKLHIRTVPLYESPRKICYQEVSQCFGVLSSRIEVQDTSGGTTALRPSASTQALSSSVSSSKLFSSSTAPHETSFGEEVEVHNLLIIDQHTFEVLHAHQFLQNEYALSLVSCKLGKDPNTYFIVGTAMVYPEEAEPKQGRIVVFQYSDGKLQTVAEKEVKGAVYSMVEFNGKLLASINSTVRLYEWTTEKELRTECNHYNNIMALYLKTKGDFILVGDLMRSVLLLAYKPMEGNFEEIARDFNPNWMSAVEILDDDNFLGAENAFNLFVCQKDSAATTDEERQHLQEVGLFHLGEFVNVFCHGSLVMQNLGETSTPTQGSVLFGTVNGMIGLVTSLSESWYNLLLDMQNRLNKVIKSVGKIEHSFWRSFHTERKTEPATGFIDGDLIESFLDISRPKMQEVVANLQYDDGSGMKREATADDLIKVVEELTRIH

Compound	pIC50 (IL-1β release)	pEC50 (CRBN-DDB1)	pEC50 (CRBN-DDB1; HTRF class, Cereblon binding)	Dmax (NEK7; read-out: NEK7 NanoBiT Dmax) [%]	Dmax (NEK7; [1]) [%]	DC50 (NEK7; read-out: NEK7 NanoBiT DC50) [nM]	DC50 (NEK7; [2]) [nM]	pIC50 (Caspase-1 activity)
Cc1cnc(C(C)(C)C(=O)NCc2cc(Cl)c(C3CCC(=O)NC3=O)c(Cl)c2)cn1 (centres unmarked) [Compound 162]	8.69	6.54	6.00 to 7.00	86	> 75	13	≤ 100	8.78
CC(C)(C(=O)NCc1cc(Cl)c(C2CCC(=O)NC2=O)c(Cl)c1)c1ncc(C(F)F)cn1 (centres unmarked) [Compound 181, N-(3,5-dichloro-4-(2,6-dioxopiperidin-3-yl)benzyl)-2-(5-(difluoromethyl)pyrimidin-2-yl)-2-methylpropanamide]	8.71	6.72	6.00 to 7.00	93	> 75	5	≤ 100	8.71
CC(C)(C(=O)NCc1cc(Cl)c(C2CCC(=O)NC2=O)c(Cl)c1)c1ccc(C2CC2)nn1 (centres unmarked) [Compound 192]	9.03	7.05	≥ 7.00	92	> 75	5	≤ 100	9.12
CC(C)(C(=O)NCc1cc(Cl)c(C2CCC(=O)NC2=O)c(Cl)c1)c1ccccc1 (centres unmarked) [Compound 37, N-(3,5-dichloro-4-(2,6-dioxopiperidin-3-yl)benzyl)-2-methyl-2-phenylpropanamide]	9.51	7.52	≥ 7.00	97	> 75	1	≤ 100	9.85
CC(C)(C(=O)NCc1cc(Cl)c(C2CCC(=O)NC2=O)c(Cl)c1)c1ncccn1 (centres unmarked) [Compound 34]	8.13	6.85	6.00 to 7.00	78	> 75	28	≤ 100	8.14
CC(C)(C(=O)NCc1cc(Cl)c(C2CCC(=O)NC2=O)c(Cl)c1)c1ccc2ocnc2c1 (centres unmarked) [Compound 17]	10.52	7.70	≥ 7.00	98	> 75	0.1	≤ 100	–
CC(C)(C(=O)NCc1cc(Cl)c(C2CCC(=O)NC2=O)c(Cl)c1)c1ccncc1 (centres unmarked) [Compound 108]	9.39	7.10	≥ 7.00	92	> 75	3	≤ 100	9.27
CC(C)(C(=O)NCc1cc(Cl)c(C2CCC(=O)NC2=O)c(Cl)c1)c1ccnc(F)c1 (centres unmarked) [Compound 93]	9.05	7.15	≥ 7.00	92	> 75	4	≤ 100	9.35
Cc1cc(C(C)(C)C(=O)NCc2cc(Cl)c(C3CCC(=O)NC3=O)c(Cl)c2)ccn1 (centres unmarked) [Compound 95]	8.92	7.00	≥ 7.00	92	> 75	6	≤ 100	9.09
CC(C)(C(=O)NCc1cc(Cl)c(C2CCC(=O)NC2=O)c(Cl)c1)c1c(F)cccc1F (centres unmarked) [Compound 94]	10.00	7.15	≥ 7.00	98	> 75	1	≤ 100	–
CC(C)(C(=O)NCc1cc(Cl)c(C2CCC(=O)NC2=O)c(Cl)c1)c1ccnc(C(F)(F)F)c1 (centres unmarked) [Compound 97]	8.28	6.77	6.00 to 7.00	76	> 75	50	≤ 100	8.23
Cc1nnc(C(C)(C)C(=O)NCc2cc(Cl)c(C3CCC(=O)NC3=O)c(Cl)c2)o1 (centres unmarked) [Compound 110]	8.01	6.49	6.00 to 7.00	76	> 75	50	≤ 100	7.95
CC(C)(C(=O)NCc1cc(Cl)c(C2CCC(=O)NC2=O)c(Cl)c1)c1ccc(S(N)(=O)=O)cc1 (centres unmarked) [Compound 76]	9.08	7.15	≥ 7.00	97	> 75	2	≤ 100	9.31
CC(C)(C(=O)NCc1cc(Cl)c(C2CCC(=O)NC2=O)c(Cl)c1)c1ccc(F)cc1 (centres unmarked) [Compound 96]	9.70	7.10	≥ 7.00	97	> 75	1	≤ 100	9.89
CC(C)(C(=O)NCc1cc(Cl)c(C2CCC(=O)NC2=O)c(Cl)c1)c1ccc2c(c1)S(=O)(=O)NC2 (centres unmarked) [Compound 32, N-(3,5-dichloro-4-(2,6-dioxopiperidin-3-yl)benzyl)-2-(1,1-dioxido-2,3-dihydrobenzo[d]isothiazol-6-yl)-2-methylpropanamide]	–	6.96	6.00 to 7.00	95	> 75	4	≤ 100	–
CC(C)(C(=O)NCc1cc(Cl)c(C2CCC(=O)NC2=O)c(Cl)c1)C1CCCO1 (centres unmarked) [Compound 265, N-(3,5-dichloro-4-(2,6-dioxopiperidin-3-yl)benzyl)-2-methyl-2-(tetrahydrofuran-2-yl)propanamide]	–	7.05	≥ 7.00	56	50 to 75	474	100 to 1000	–
O=C1CCC(c2c(Cl)cc(CNC(=O)C3(c4ccc5[nH]ncc5c4)CCOCC3)cc2Cl)C(=O)N1 (centres unmarked) [Compound 132, N-(3,5-dichloro-4-(2,6-dioxopiperidin-3-yl)benzyl)-4-(1H-indazol-5-yl)tetrahydro-2H-pyran-4-carboxamide]	–	7.30	≥ 7.00	92	> 75	5	≤ 100	–
CC(C)(C(=O)NCc1cc(Cl)c(C2CCC(=O)NC2=O)c(Cl)c1)c1cnccn1 (centres unmarked) [Compound 161]	–	6.64	6.00 to 7.00	69	50 to 75	54	≤ 100	–
CC(C)(C(=O)NCc1cc(Cl)c(C2CCC(=O)NC2=O)c(Cl)c1)c1cnc(C(F)F)cn1 (centres unmarked) [Compound 196]	–	6.51	6.00 to 7.00	90	> 75	9	≤ 100	–
CC1(C(=O)NCc2cc(Cl)c(C3CCC(=O)NC3=O)c(Cl)c2)COc2ccccc2C1 (centres unmarked) [Compound 38, N-(3,5-dichloro-4-(2,6-dioxopiperidin-3-yl)benzyl)-3-methylchromane-3-carboxamide]	–	7.40	≥ 7.00	90	> 75	6	≤ 100	–
CC(C)(C(=O)NCc1cc(Cl)c(C2CCC(=O)NC2=O)c(Cl)c1)c1cc(C2CC2)ncn1 (centres unmarked) [Compound 151]	–	6.32	6.00 to 7.00	60	50 to 75	88	≤ 100	–
CC(C)(C(=O)NCc1cc(Cl)c(C2CCC(=O)NC2=O)c(Cl)c1)c1cnc(OC(F)F)cn1 (centres unmarked) [Compound 257]	–	7.30	≥ 7.00	95	> 75	1	≤ 100	–
CCn1ccc(C(C)(C)C(=O)NCc2cc(Cl)c(C3CCC(=O)NC3=O)c(Cl)c2)cc1=O (centres unmarked) [Compound 45]	–	6.28	6.00 to 7.00	91	> 75	13	≤ 100	–
